Read-outs that look alike come from different tables or passages of the source.
Biological target: TBK1 (Homo sapiens (Human), UniProt Q9UHD2)
Experiment: TBK1 low ATP kinase assay (in vitro assay 1)
Format: biochemical
[1] = in vitro assay 1, read-out: TBK1 low ATP kinase assay IC50

TBK1, sequence (Q9UHD2 whole entry): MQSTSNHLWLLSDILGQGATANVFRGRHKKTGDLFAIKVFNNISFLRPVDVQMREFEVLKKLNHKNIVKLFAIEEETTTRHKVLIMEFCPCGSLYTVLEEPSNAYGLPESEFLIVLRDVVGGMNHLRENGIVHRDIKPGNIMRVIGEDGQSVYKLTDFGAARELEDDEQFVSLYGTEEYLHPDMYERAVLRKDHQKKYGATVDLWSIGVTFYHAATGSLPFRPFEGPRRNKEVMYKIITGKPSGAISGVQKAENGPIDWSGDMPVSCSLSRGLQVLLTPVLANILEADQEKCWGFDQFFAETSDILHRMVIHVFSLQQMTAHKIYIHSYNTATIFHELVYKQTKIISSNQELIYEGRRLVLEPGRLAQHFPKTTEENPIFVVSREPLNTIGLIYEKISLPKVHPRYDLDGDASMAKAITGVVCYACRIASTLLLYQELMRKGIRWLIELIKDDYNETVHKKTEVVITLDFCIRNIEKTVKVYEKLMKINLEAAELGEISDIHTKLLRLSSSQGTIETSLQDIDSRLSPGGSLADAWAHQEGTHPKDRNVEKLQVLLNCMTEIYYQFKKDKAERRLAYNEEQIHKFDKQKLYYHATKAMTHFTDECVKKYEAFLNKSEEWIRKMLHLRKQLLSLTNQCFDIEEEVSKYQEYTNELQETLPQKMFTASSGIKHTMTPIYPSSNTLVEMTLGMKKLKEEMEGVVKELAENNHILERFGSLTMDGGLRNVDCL

| IC50 [1] [nM] | IC50 (TBK1 low ATP kinase assay IC50, in vitro assay 1) [nM] | Compound |
| --- | --- | --- |
| 20.5 | – | CC(c1ccnc(Nc2nc3ccc(-c4cc(OCC(F)(F)C(F)(F)F)ncn4)cc3[nH]2)c1)N1CCN(C(=O)CC(F)(F)F)CC1 (single isomer, unassigned) [Example 166.02, 3,3,3-trifluoro-1-(4-{(1R or 1S)-1-[2-({6-[6-(2,2,3,3,3-pentafluoropropoxy)pyrimidin-4-yl]-1H-benzimidazol-2-yl}amino)pyridin-4-yl]ethyl}piperazin-1-yl)propan-1-one] |
| 41.3 | – | CCOc1ncnc(-c2ccc3nc(Nc4cc(CN5CCN(C(=O)C6CC6)CC5)ccn4)[nH]c3c2)c1OC [Example 167.03, cyclopropyl{4-[(2-{[6-(6-ethoxy-5-methoxypyrimidin-4-yl)-1H-benzimidazol-2-yl]amino}pyridin-4-yl)methyl]piperazin-1-yl}methanone] |
| 6.35 | – | CC(c1ccnc(Nc2nc3ccc(-c4cc(OCC(F)(F)F)ncn4)cc3[nH]2)c1)N1CCN(C(=O)C2CC2(F)F)CC1 (single isomer, unassigned) [Example 119.05, ((1RS)-2,2-difluorocyclopropyl)(4-{(1R or 1S)-1-[2-({6-[6-(2,2,2-trifluoroethoxy)pyrimidin-4-yl]-1H-benzimidazol-2-yl}amino)pyridin-4-yl]ethyl}piperazin-1-yl)methanone] |
| 210 | – | CCC(=O)N1CCN(Cc2ccnc(Nc3nc4ccc(-c5nc(C)no5)cc4[nH]3)c2)CC1 [Example 101.28, 1-{4-[(2-{[6-(3-methyl-1,2,4-oxadiazol-5-yl)-1H-benzimidazol-2-yl]amino}pyridin-4-yl)methyl]piperazin-1-yl}propan-1-one] |
| 42.1 | – | CC(C)Nc1ncnc(-c2ccc3nc(Nc4cc(CN5CCN(C(=O)OC(C)(C)C)CC5)ccn4)[nH]c3c2)c1F [Example 193.01, tert-butyl 4-{[2-({6-[5-fluoro-6-(propan-2-ylamino)pyrimidin-4-yl]-1H-benzimidazol-2-yl}amino)pyridin-4-yl]methyl}piperazine-1-carboxylate] |
| 38 | – | COc1cncnc1-c1ccc2nc(Nc3cc(CN4CCN(S(=O)(=O)N(C)C)CC4)ccn3)[nH]c2c1 [Example 35.01.15, 4-[(2-{[6-(5-methoxypyrimidin-4-yl)-1H-benzimidazol-2-yl]amino}pyridin-4-yl)methyl]-N,N-dimethylpiperazine-1-sulfonamide] |
| 2 | – | COc1c(NCC2CC2)ncnc1-c1ccc2nc(Nc3cc(C(C)N4CCN(C(=O)C5CC5)CC4)ccn3)[nH]c2c1 (single isomer, unassigned) [Example 109.02.02, cyclopropyl{4-[(1R or 1S)-1-{2-[(6-{6-[(cyclopropylmethyl)amino]-5-methoxypyrimidin-4-yl}-1H-benzimidazol-2-yl)amino]pyridin-4-yl}ethyl]piperazin-1-yl}methanone] |
| 20.4 | – | Cc1cc(CN2CCN(C(=O)CC(F)(F)F)CC2)cc(Nc2nc3ccc(-c4ccncn4)cc3[nH]2)n1 [Example 23.02.01, 3,3,3-trifluoro-1-{4-[(2-methyl-6-{[6-(pyrimidin-4-yl)-1H-benzimidazol-2-yl]amino}pyridin-4-yl)methyl]piperazin-1-yl}propan-1-one] |
| 1.7 | – | COCc1cc(-c2ccc3nc(Nc4cc(C(C)N5CCN(C(=O)C6CC6)CC5)ccn4)[nH]c3c2)ncn1 (single isomer, unassigned) [Example 84.03, cyclopropyl(4-{(1R or 1S)-1-[2-({6-[6-(methoxymethyl)pyrimidin-4-yl]-1H-benzimidazol-2-yl}amino)pyridin-4-yl]ethyl}piperazin-1-yl)methanone] |
| 19 | – | CN(c1cc(-c2ccc3nc(Nc4cc(CN5CCN(C(=O)C6CC6)CC5)ccn4)[nH]c3c2)ncn1)C1CCC1 [Example 156.03, [4-({2-[(6-{6-[cyclobutyl(methyl)amino]pyrimidin-4-yl}-1H-benzimidazol-2-yl)amino]pyridin-4-yl}methyl)piperazin-1-yl](cyclopropyl)methanone] |
| 49.8 | – | COc1cc(-c2ccc3nc(Nc4cc(CN5CCN(C(=O)CC6CC6)CC5)ccn4)[nH]c3c2)ccn1 [Example 02.05, 2-cyclopropyl-1-{4-[(2-{[6-(2-methoxypyridin-4-yl)-1H-benzimidazol-2-yl]amino}pyridin-4-yl)methyl]piperazin-1-yl}ethanone] |
| – | 17.2 | Cc1noc(-c2ccc3nc(Nc4cc(C(C)N5CCN(C(=O)CC(F)(F)F)CC5)ccn4)[nH]c3c2)n1 (single isomer, unassigned) [Example 16.06.02.B, 3,3,3-trifluoro-1-{4-[(1S or 1R)-1-(2-{[6-(3-methyl-1,2,4-oxadiazol-5-yl)-1H-benzimidazol-2-yl]amino}pyridin-4-yl)ethyl]piperazin-1-yl}propan-1-one] |
| 364 | – | O=C(C1CC1)N1CCN(Cc2ccnc(Nc3nc4ccc(-c5ncccn5)cc4[nH]3)c2)CC1 [Example 180.03, cyclopropyl{4-[(2-{[6-(pyrimidin-2-yl)-1H-benzimidazol-2-yl]amino}pyridin-4-yl)methyl]piperazin-1-yl}methanone] |
| 1420 | – | CN(C)c1nccnc1-c1ccc2nc(Nc3cc(CN4CCN(C(=O)C5CC5)CC4)ccn3)[nH]c2c1 [Example 196.03, cyclopropyl(4-{[2-({6-[3-(dimethylamino)pyrazin-2-yl]-1H-benzimidazol-2-yl}amino)pyridin-4-yl]methyl}piperazin-1-yl)methanone] |
| 205 | – | O=C(C1CC1)N1CCN(Cc2ccnc(Nc3nc4ccc(-c5cncnc5)cc4[nH]3)c2)CC1 [Example 45.01.03, cyclopropyl{4-[(2-{[6-(pyrimidin-5-yl)-1H-benzimidazol-2-yl]amino}pyridin-4-yl)methyl]piperazin-1-yl}methanone] |
| 440 | – | CN(C)c1cnc(-c2ccc3nc(Nc4cc(CN5CCN(C(=O)C6CC6)CC5)ccn4)[nH]c3c2)cn1 [Example 144.03, cyclopropyl(4-{[2-({6-[5-(dimethylamino)pyrazin-2-yl]-1H-benzimidazol-2-yl}amino)pyridin-4-yl]methyl}piperazin-1-yl)methanone] |
| 3580 | – | COc1cc(-c2ccc3nc(Nc4cc(CN5CCN(C(=O)CC(F)(F)F)CC5)ccn4)[nH]c3c2)nc(C)n1 [Example 176.02, 3,3,3-trifluoro-1-{4-[(2-{[6-(6-methoxy-2-methylpyrimidin-4-yl)-1H-benzimidazol-2-yl]amino}pyridin-4-yl)methyl]piperazin-1-yl}propan-1-one] |
| 136 | – | O=C(C1CC1)N1CCN(Cc2ccnc(Nc3nc4ccc(-c5ncnc6c5COC6)cc4[nH]3)c2)CC1 [Example 182.03, cyclopropyl{4-[(2-{[6-(5,7-dihydrofuro[3,4-d]pyrimidin-4-yl)-1H-benzimidazol-2-yl]amino}pyridin-4-yl)methyl]piperazin-1-yl}methanone] |
| 3.63 | – | CC(c1ccnc(Nc2nc3ccc(-c4cc(C(F)F)ncn4)cc3[nH]2)c1)N1CCN(C(=O)CC(F)(F)F)CC1 (single isomer, unassigned) [Example 174.02, 1-(4-{(1R or 1S)-1-[2-({6-[6-(difluoromethyl)pyrimidin-4-yl]-1H-benzimidazol-2-yl}amino)pyridin-4-yl]ethyl}piperazin-1-yl)-3,3,3-trifluoropropan-1-one] |
| 7.5 | – | CC(C)(C)OC(=O)N1CCN(Cc2ccnc(Nc3nc4ccc(-c5cc(NCC6CC6)ncn5)cc4[nH]3)c2)CC1 [Example 142.01, tert-butyl 4-({2-[(6-{6-[(cyclopropylmethyl)amino]pyrimidin-4-yl}-1H-benzimidazol-2-yl)amino]pyridin-4-yl}methyl)piperazine-1-carboxylate] |
| 54.6 | – | Cc1noc(-c2ccc3nc(Nc4cc(CN5CCN(C(=O)C6CC6)C[C@H]5C)ccn4)[nH]c3c2)n1 [Example 16.03.04, cyclopropyl{(3R)-3-methyl-4-[(2-{[6-(3-methyl-1,2,4-oxadiazol-5-yl)-1H-benzimidazol-2-yl]amino}pyridin-4-yl)methyl]piperazin-1-yl}methanone] |
| 275 | – | CC(C)(C)OC(=O)N1CCN(Cc2ccnc(Nc3nc4ccc(-c5ncnc6c5COC6)cc4[nH]3)c2)CC1 [Example 182.01, tert-butyl 4-[(2-{[6-(5,7-dihydrofuro[3,4-d]pyrimidin-4-yl)-1H-benzimidazol-2-yl]amino}pyridin-4-yl)methyl]piperazine-1-carboxylate] |
| 696 | – | O=C(C1CC1)N1CCN(Cc2ccnc(Nc3nc4ccc(-c5nc(C6CC6)c[nH]5)cc4[nH]3)c2)CC1 [Example 43.03, cyclopropyl{4-[(2-{[6-(4-cyclopropyl-1H-imidazol-2-yl)-1H-benzimidazol-2-yl]amino}pyridin-4-yl)methyl]piperazin-1-yl}methanone] |

| Compound | IC50 [1] [nM] | IC50 (TBK1 low ATP kinase assay IC50, in vitro assay 1) [nM] |
| --- | --- | --- |
| CCn1cc(-c2ccc3nc(Nc4cc(CN5CCN(C(=O)CC(F)(F)F)CC5)ccn4)[nH]c3c2)cn1 [Example 38.02, 1-{4-[(2-{[6-(1-ethyl-1H-pyrazol-4-yl)-1H-benzimidazol-2-yl]amino}pyridin-4-yl)methyl]piperazin-1-yl}-3,3,3-trifluoropropan-1-one] | 50.4 | – |
| Cc1noc(-c2ccc3nc(Nc4cc(CN5CCN(C(=O)C6CC6)CC5)ccn4)[nH]c3c2)n1 [Example 16.01.04, cyclopropyl{4-[(2-{[6-(3-methyl-1,2,4-oxadiazol-5-yl)-1H-benzimidazol-2-yl]amino}pyridin-4-yl)methyl]piperazin-1-yl}methanone] | 67 | – |
| Cc1noc(-c2ccc3nc(Nc4cc(CN5CCN(C(=O)CC6CC6)CC5)ccn4)[nH]c3c2)n1 [Example 16.01.03, 2-cyclopropyl-1-{4-[(2-{[6-(3-methyl-1,2,4-oxadiazol-5-yl)-1H-benzimidazol-2-yl]amino}pyridin-4-yl)methyl]piperazin-1-yl}ethanone] | 115 | – |
| CN(C)c1ncnc(-c2ccc3nc(Nc4cc(CN5CCN(C(=O)CC(F)(F)F)CC5)ccn4)[nH]c3c2)c1Cl [Example 179.02, 1-(4-{[2-({6-[5-chloro-6-(dimethylamino)pyrimidin-4-yl]-1H-benzimidazol-2-yl}amino)pyridin-4-yl]methyl}piperazin-1-yl)-3,3,3-trifluoropropan-1-one] | 1140 | – |
